Experimental data taken from patent publication US7736624B2, “Methods and compositions for diagnostic and therapeutic targeting of COX-2” (priority 2006, dated 2010).
Entries after “also recorded” stand apart in the source; their conditions may differ.

Key:
RAW264.7 cells = assay: In vitro cell imaging, LPS/IFNγ-activated RAW264.7 cells; assay type: cell-based, mouse; details: for fluorescence imaging of cells: 200 nM, 30 minutes, LPS-activated RAW264.7; for fluorescent signal after indomethacin pretreatment: indomethacin (20 μM) pretreatment, RAW264.7
Description: RAW264.7 cells (a line established from a tumor induced in a mouse by Abelson murine leukemia virus and available from the American Type Culture Collection, Manassas, Va., United States of America) were grown overnight on 35 mm culture dishes (MatTek Corp., Ashland, Mass., United States of America) with glass coverslips in Dulbecco's Modified Eagle Medium (DMEM) plus 10% heat-inactivated fetal bovine serum (FBS). Platings of cells were done in order to reach 30% confluency the next day. After overnight growth, the growth medium was replaced with 2 ml serum-free DMEM per dish. Individual dishes then received 200 ng/ml LPS plus 10 units/ml murine IFNγ (Roche Applied Science, Indianapolis, Ind., United States of America) for 6 hours to induce COX-2. […] After 30 minutes, the cells were washed briefly three times in medium and incubated in Hank's balanced salt solution (HBSS)/Tyrode's for 60 minutes at 37° C. After 60 minutes, the HBSS/Tyrode's was removed and fresh HBSS/Tyrode's was added. The cells were immediately imaged using a Zeiss Axiovert 25 Microscope (propidium iodide filter/2-3 sec exposure/gain of 2).

[1] = Amounts of intact compound in tumors and normal tissues by HPLC-UV/MS; assay type: in vivo, Nude mice
Description: Additionally, the presence of intact Compound 27vv in tumors and normal tissues were examined by high performance liquid chromatography (HPLC) and mass spectroscopy (MS). Tumors and other tissues were collected from treated mice and immediately frozen on dry ice. Tissues were homogenized in Tris buffer (pH=7.4) and proteins precipitated with acetonitrile (ACN). Protein pellets were collected by centrifugation and dried before reconstitution in Tris buffer pH 7.4 plus 10% methanol. Proteins were purified by reverse-phase solid=phase extraction (RP-SPE) and analyzed by HPLC-UV using the conditions set forth in Table 4:
A standard curve was generated for Compound 27vv between 1 and 15 nmoles. Linear regression analysis generated an equation for the resulting line of y=311624x+85461 (R^2=0.9956). Various normal and tumor samples were then analyzed and the amounts of Compound 27vv present in the samples were determined.
The putative Compound 27vv peak in the tumor samples was collected and analyzed by LCMS in order to verify its identity.

[2] = system: HCA7 colorectal adenocarcinoma cells; assay: In vivo imaging of nude mice xenografted with HCA7 cells; details: HCA7 subcutaneous xenograft
Description: In parallel experiments, nude mice were xenografted with a subcutaneous injection on a lateral side of 1×10^6. HCA7 colorectal adenocarcinoma cells (Marsh et al. (1993) J Pathol 170:441-450).

[3] = system: COX-2-transformed HEK293 cells; assay: In vitro cell imaging, HEK293 cells expressing human COX-2; assay type: cell-based; details: HEK293/COX-2; for fluorescent staining of cells: 200 nM; for fluorescent staining after indomethacin pretreatment: indomethacin (20 μM) pretreatment
Description: A second experimental design employed HEK293 cells (a cell line generated by transformation of human embryonic kidney cell cultures with adenovirus) that had been transformed with an expression construct encoding a constitutively active human COX-2. For imaging experiments, cells were also plated on 35 mm culture dishes (MatTek Corp., Ashland, Mass., United States of America) with glass coverslips and grown to 70% confluency in DMEM plus 20% FBS. When the appropriate confluency was reached (approximately 48 hours after plating), the medium was replaced with DMEM/1% FBS and exposed to 200 nM Compound 27vv or Compound 27ww as described hereinabove. After 30 minutes, the cells were washed briefly 3 times and incubated in DMEM/10% FBS for 60 minutes at 37° C. After 60 minutes, the medium was removed and the cells were washed with HBSS/Tyrode's. After the second wash, fresh HBSS/Tyrode's was added and the cells were immediately imaged using a Zeiss Axiovert 25 Microscope (propidium iodide filter/3 sec exposure/gain of 3).

[4] = system: liver tumors from SW620 cells; assay: In vivo imaging of nude mice with liver metastases of SW620 cells; details: 5 mg/kg i.p.
Description: Nude mice with liver tumors from SW620 cells (a human colorectal adenocarcinoma cell line that expresses a low level of COX-2 and that is available from ATCC) were obtained from Dr. Ray DuBois of the Vanderbilt-Ingram Cancer Center of Vanderbilt University (Nashville, Tenn., United States of America). Mice were obtained about 8-10 weeks after metastasis of the cells from the spleen. Control mice and mice bearing and tumor metastases were anesthetized and injected intraperitoneally (i.p.) with 5 mg/kg Compound 27vv. Images of injected mice were captured by a XENOGEN® IVIS® Imaging System (Xenogen Corp., Alameda, Calif., United States of America) using a Cy5.5 filter or a DsRed filter (1 second exposure/f2/high resolution/1.5 cm depth). […] At 5 hours post-injection, mice were euthanized and liver tumors were imaged by fluorescence microscopy.

[5] = system: 1483 Head/Neck Squamous Cell Carcinoma Cells; assay: In vitro cell imaging, 1483 Head/Neck Squamous Cell Carcinoma Cells; assay type: cell-based; details: 1483 cells

Q: For `COc1ccc2c(c1)c(CC(=O)NCCCCNC(=O)c1ccc(C(=O)[O-])c(C3=c4cc5c6c(c4Oc4c3cc3c7c4CCCN7CCC3)CCC[N+]=6CCC5)c1)c(C)n2C(=O)c1ccc(Cl)cc1` [Compound 27vv], which “fluorescence imaging of cells” value (RAW264.7 cells) is on record?
A: Its value is “LPS activation enhanced imaging; also recorded: consistent fluorescent signals over control cells”.

Q: What about the “fluorescent signal after indomethacin pretreatment” value (RAW264.7 cells) of the same molecule?
A: Its value is “reduced the fluorescent signal”.

Q: What about the “intact compound in SW620 tumors” value ([1]; 5 hours post-injection, HPLC and MS) of the same molecule?
A: The value was “confirmed the presence of intact Compound 27vv”.

Q: What about the “level in normal liver tissue” value ([1]; HPLC and MS) of the same molecule?
A: The value was “below the limit of detection”.

Q: What about the “Amount of Compound 27vv in sample” value ([1]; Mouse 1 - giant tumor A) of the same molecule?
A: The value was 3.3 nmol.

Q: What about the “Compound 27vv” value ([1]; Mouse 1 - giant tumor A) of the same molecule?
A: Its value is 31.1 nmol/g.

Q: What about the “Amount of Compound 27vv in sample” value ([1]; Mouse 1 - giant tumor B) of the same molecule?
A: The value was 1.8 nmol.

Q: What about the “Compound 27vv” value ([1]; Mouse 1 - giant tumor B) of the same molecule?
A: The value was 15.3 nmol/g.

Q: What about the “Amount of Compound 27vv in sample” value ([1]; Mouse 1 - giant tumor C) of the same molecule?
A: The value was 4.7 nmol.

Q: What about the “Compound 27vv” value ([1]; Mouse 1 - giant tumor C) of the same molecule?
A: The value was 41.1 nmol/g.

Q: And the “Amount of Compound 27vv in sample” value ([1]; Mouse 1 - giant tumor D)?
A: The value was 0.2 nmol.

Q: And the “Compound 27vv” value ([1]; Mouse 1 - giant tumor D)?
A: The value was 0.9 nmol/g.

Q: And the “Compound 27vv nmol/g” value ([1]; Mouse 2 - normal liver lobe)?
A: Its value is “<Std. A”.

Q: And the “Compound 27vv nmol/g” value ([1]; Mouse 2 - small tumor)?
A: The value was “<Std. A”.

Q: And the “Compound 27vv nmol/g” value ([1]; Mouse 2 - tissue between the lobes)?
A: Its value is “<Std. A”.

Q: And the “tumor fluorescence in vivo and after removal of tumor masses” value [2]?
A: The value was “strong tumor-specific fluorescence”.

Q: What about the “fluorescent staining of cells” value [3] of the same molecule?
A: Its value is “clearly observable fluorescent staining; also recorded: fluorescence above the level observed in control HEK293 cells”.

Q: And the “fluorescent staining after indomethacin pretreatment” value [3]?
A: Its value is “reduced”.

Q: What about the “in vivo fluorescence imaging” value ([4]; 30 minutes and 3-4 hours post-injection) of the same molecule?
A: Its value is “liver-specific imaging”.

Q: What about the “fluorescence microscopy of excised liver tumors” value ([4]; 5 hours post-injection) of the same molecule?
A: The value was “strongly fluoresced”.

Q: With `COc1ccc2c(c1)c(CC(=O)NCCCCNC(=O)c1ccc(C3=c4cc5c6c(c4Oc4c3cc3c7c4CCCN7CCC3)CCC[N+]=6CCC5)c(C(=O)[O-])c1)c(C)n2C(=O)c1ccc(Cl)cc1` [Compound 27eee] as the molecule, how does the “fluorescence imaging of cells” value (RAW264.7 cells) read?
A: Its value is “good specific staining; also recorded: consistent fluorescent signals over control cells”.

Q: And the “fluorescent signal after indomethacin pretreatment” value (RAW264.7 cells)?
A: Its value is “reducible by pretreatment with indomethacin”.

Q: What about the “fluorescent staining of cells” value [3] of the same molecule?
A: The value was “good specific staining; also recorded: fluorescence above the level observed in control HEK293 cells”.

Q: And the “fluorescent staining after indomethacin pretreatment” value [3]?
A: The value was “reducible by pretreatment with indomethacin”.

Q: What about the “fluorescent staining of cells” value ([5]; 200 nM) of the same molecule?
A: Its value is “good specific staining; also recorded: considerable fluorescence”.

Q: And the “fluorescent staining after indomethacin pretreatment” value ([5]; indomethacin pretreatment)?
A: The value was “reducible by pretreatment with indomethacin”.
